# Results: PMC4754833, “Rilpivirine analogs potently inhibit drug-resistant HIV-1 mutants” (Retrovirology, 2016)
# Like-named read-outs stand apart in the source and are kept apart here.
# Experiments:
# [1] = test system: HIV-1 RT mutant E138K/M184V; experiment: single round infection assay, E138K/M184V; format: cell-based; conditions: for fold-change of IC50 of the mutant relative to WT: E138K/M184V vs WT; for IC50: ± SD, n=4
# Experimental: (§1) The human osteosarcoma cell line, HOS, was obtained from Dr. Richard Schwartz (Michigan State University, East Lansing, MI) and grown in Dulbecco’s modified Eagle’s medium (Invitrogen, Carlsbad, CA) supplemented with 5 % (v/v) fetal bovine serum, 5 % newborn calf serum, and penicillin (50 units/ml) plus streptomycin (50 µg/ml; Quality Biological, Gaithersburg, MD). Virion production and single-round infectivity assays were used to determine antiviral activity (IC50 values) of the compounds as previously described.
# (§2) pNLNgoMIVR-ΔEnv.LUC has been described previously. The RT open reading frame was removed from pNLNgoMIVR-ΔEnv.LUC (digestion with SpeI and SalI) and inserted between the SpeI and SalI sites of pBluescript II KS+. Using that construct as the wild-type template, we prepared the following HIV-1 RT mutants using the QuikChange II XL (Stratagene, La Jolla, CA) site-directed mutagenesis protocol kit: L100I, K103N, Y181C, Y188L, H221Y, K103N/Y181C, G190A, G190S, M230L, P236L, L100I/K103N, K103N/P225H, V106A/G190A/F227L, V106A, L234I, V106A/F227L, V106A/L234I, V106A/F227L/L234I, E40K, D67E, K101E, V111A, E138K, M184I, M184V, K101E/M184I, K101E/M184V, E138K/M184I, E138K/M184V, K101P, Y181I, and K101P/V179I. The following sense oligonucleotides were used with matching cognate antisense oligonucleotides (not shown) (Integrated DNA Technologies, Coralville, IA) in the mutagenesis: L100I, 5′-[…]-3′; L100I 2-103, 5′-[…]-3′; K103N, 5′-[…]-3′; Y181C, 5′-[…]-3′; Y188L, 5′-[…]-3′; H221Y, 5′-[…]-3′; G190A, 5′-[…]-3′; G190S, 5′-[…]-3′; P225H, 5′-[…]-3′; F227, 5′-[…]-3′; M230L, 5′-[…]-3′; P236L, 5′-[…]-3′; V106A, 5′-[…]-3′; L234I, 5′-[…]-3′; E40K, 5′-[…]-3′; D67E, 5′-[…]-3′; K101E, 5′-[…]-3′; V111A, 5′-[…]-3′; E138K, 5′-[…]-3′; M184I, 5′-[…]-3′; M184V, 5′-[…]-3′; K101P, 5′-[…]-3′; Y181I, 5′-[…]-3′; K101P/V179I, 5′-[…]-3′. The double mutants K103N/Y181C, K103N/P225H, and L100I/K103N were made using the previously generated K103N mutant and the appropriate oligonucleotides to add the second mutation, Y181C, P225, and L100I respectively. The double mutants V106A/F227L and V106A/L234I were prepared using the previously generated V106A mutant and the appropriate oligonucleotides to add the second mutation, F227L and L234I, respectively. The double mutants K101E/M184I and K101E/M184V were constructed using the previously generated K101E mutant and the appropriate oligonucleotides to add the second mutation, M184I and M184V, respectively. The double mutants E138K/M184I and E138K/M184V were constructed using the previously generated E138K mutant and the appropriate oligonucleotides for the second mutation, M184I and M184V, respectively. The triple mutant V106A/F227L/L234I was made using the previously generated V106A/F227L double mutant and the appropriate oligonucleotides for the third mutation, L234I. The triple mutant V106A/G190A/F227L was constructed in a series of steps using the previously generated V106A mutant and the appropriate oligonucleotides for the second mutation, G190A, to generate the double mutant V106A/G190A, and then the triple mutant was made using double mutant V106A/G190A and oligonucleotides for the third mutation, F227L. The DNA sequence of each construct was verified by DNA sequence determination. The sequences encoding the mutant RTs were then subcloned into pNLNgoMIVR-ΔEnv.LUC (between the KpnI and SalI sites) to produce the mutant HIV-1 constructs. These DNA sequences were also checked independently by DNA sequence determination.
# (§3) 10.1186/s12977-016-0244-2 The IC50 values (nM) of RPV and the RPV analogs were determined against the NNRTI resistant mutants were measured by using a single round infection assay, n = 4. The concentrations (nM) are measured by reductions in luciferase reporter activity followed by the standard deviations. […]
# HIV-1 RT mutant K101E = experiment: single round infection assay, K101E; format: cell-based; conditions: for IC50: ± SD, n=4; for fold-change of IC50 of the mutant relative to WT: K101E vs WT
# Experimental: as §1, §2, §3
# HIV-1 RT mutant D67E = experiment: single round infection assay, D67E; format: cell-based; conditions: for fold-change of IC50 of the mutant relative to WT: D67E vs WT; for IC50: ± SD, n=4
# Experimental: as §1, §2, §3
# WT HIV-1 [2] = experiment: single round infection luciferase assay, WT HIV-1; format: cell-based; conditions: Human immunodeficiency virus 1
# Experimental: as §1, §2, §3
# [3] = test system: HIV-1 RT mutant V106A/G190A/F227L; experiment: single round infection assay, V106A/G190A/F227L; format: cell-based; conditions: for IC50: Human immunodeficiency virus 1; for fold-change of IC50 of the mutant relative to WT: V106A/G190A/F227L vs WT
# Experimental: as §1, §2, §3
# HIV-1 RT mutant Y181I = experiment: single round infection assay, Y181I; format: cell-based; conditions: for IC50: Human immunodeficiency virus 1; for fold-change of IC50 of the mutant relative to WT: Y181I vs WT
# Experimental: as §1, §2, §3
# HIV-1 RT mutant M230L = experiment: single round infection assay, M230L; format: cell-based; conditions: for IC50: ± SD, n=4, limit of detection 100 nM; for fold-change of IC50 of the mutant relative to WT: M230L vs WT
# Experimental: as §1, §2, §3
# HIV-1 RT mutant E138K = experiment: single round infection assay, E138K; format: cell-based; conditions: for fold-change of IC50 of the mutant relative to WT: E138K vs WT; for IC50: ± SD, n=4
# Experimental: as §1, §2, §3
# HIV-1 RT mutant K101P = experiment: single round infection assay, K101P; format: cell-based; conditions: for IC50: Human immunodeficiency virus 1; for fold-change of IC50 of the mutant relative to WT: K101P vs WT
# Experimental: as §1, §2, §3
# [4] = test system: HIV-1 RT mutant K103N/P225H; experiment: single round infection assay, K103N/P225H; format: cell-based; conditions: for IC50: Human immunodeficiency virus 1; for fold-change of IC50 of the mutant relative to WT: K103N/P225H vs WT
# Experimental: as §1, §2, §3
# [5] = test system: HIV-1 RT mutant E138K/M184I; experiment: single round infection assay, E138K/M184I; format: cell-based; conditions: for fold-change of IC50 of the mutant relative to WT: E138K/M184I vs WT; for IC50: ± SD, n=4
# Experimental: as §1, §2, §3
# HIV-1 RT mutant H221Y = test system: HIV-1 RT mutant H221Y; set-up: method as in PMID 23217210; conditions: previous study; cited from earlier work
# WT HIV-1 [6] = conditions: previous study; cited from earlier work
# [7] = Human immunodeficiency virus 1, E138K/M184V
# [8] = Human immunodeficiency virus 1, K101E
# [9] = Human immunodeficiency virus 1, D67E
# [10] = Human immunodeficiency virus 1, M230L
# [11] = Human immunodeficiency virus 1, E138K
# [12] = Human immunodeficiency virus 1, E138K/M184I
Compound,fold-change of IC50 of the mutant relative to WT [1],"IC50 [1, 7] [nM]",IC50 (HIV-1 RT mutant K101E; [8]) [nM],fold-change of IC50 of the mutant relative to WT (HIV-1 RT mutant K101E),fold-change of IC50 of the mutant relative to WT (HIV-1 RT mutant D67E),IC50 (HIV-1 RT mutant D67E; [9]) [nM],IC50 (WT HIV-1 [2]) [nM],IC50 [3] [nM],fold-change of IC50 of the mutant relative to WT [3],IC50 (HIV-1 RT mutant Y181I) [nM],IC50 (HIV-1 RT mutant M230L; [10]) [nM],fold-change of IC50 of the mutant relative to WT (HIV-1 RT mutant E138K),IC50 (HIV-1 RT mutant E138K; [11]) [nM],IC50 (HIV-1 RT mutant K101P) [nM],IC50 [4] [nM],fold-change of IC50 of the mutant relative to WT [4],fold-change of IC50 of the mutant relative to WT [5],IC50 (HIV-1 RT mutant H221Y) [nM],IC50 (WT HIV-1 [6]) [nM],fold-change of IC50 of the mutant relative to WT (HIV-1 RT mutant M230L),further results
Cc1cc(/C=C/C#N)cc(C)c1Nc1ncc2ncn(-c3ccc(C#N)cc3)c2n1 [compound 26],< 2,13.2 ± 2.3,56.1 ± 4.1,7,8,62.3 ± 1.3,7.7,46.2 ± 11.1,6,> 100,> 100,4,28.8 ± 1.1,> 100,12.9,< 2,3,,,,"IC50 [5, 12]: 24.5 ± 4.8 nM"
"Cc1cc(/C=C/C#N)cc(C)c1Nc1ccnc(Nc2ccc(C#N)cc2)n1 [RPV, rilpivirine]",5,< 2.5,< 2.5,11,3,,0.24 ± 0.1,0.5 ± 0.02,2,8.8,,4,,6.2,0.6 ± 0.2,3,5,< 7,< 7,7,IC50 ([1]; E138K/M184V): 1.3 ± 0.4 nM; IC50 (HIV-1 RT mutant K101E; K101E): 2.6 ± 1.6 nM; fold-change of IC50 of the mutant relative to WT (HIV-1 RT mutant Y181I): 37; fold-change of IC50 of the mutant relative to WT (HIV-1 RT mutant K101P): 26
Cc1cc(/C=C/C#N)cc(C)c1Nc1nc(Nc2ccc(C#N)cc2)c2nc[nH]c2n1 [compound 13],4,,,4,6,< 2.5,0.26 ± 0.04,0.5 ± 0.2,< 2,1.2,,5,,18.1,0.3 ± 0.09,< 2,3,< 7,< 7,8,IC50 (HIV-1 RT mutant D67E; D67E): 1.6 ± 0.4 nM; fold-change of IC50 of the mutant relative to WT (HIV-1 RT mutant Y181I): 5; fold-change of IC50 of the mutant relative to WT (HIV-1 RT mutant K101P): 70
COc1ccc(Cn2cnc3c(Nc4ccc(C#N)cc4)nc(Nc4c(C)cc(/C=C/C#N)cc4C)nc32)cc1 [compound 12],7,4.9 ± 0.99,3.3 ± 0.3,5,43,29 ± 6.9,0.67 ± 0.06,5.9 ± 0.14,9,> 100,13.8,12,7.8 ± 0.64,> 100,3 ± 0.4,4,4,< 7,< 7,21,"IC50 [5, 12]: 2.4 ± 0.5 nM"
Cc1cc(/C=C/C#N)cc(C)c1Nc1nc(Nc2ccc(C#N)cc2)ncc1N [compound 7],3,< 2.5,< 2.5,3,6,4.5 ± 1.1,0.78 ± 0.2,1.4 ± 0.4,< 2,19,< 6.1,2,< 2.5,9,1.1 ± 0.25,< 2,4,< 7,< 7,5,"IC50 ([1]; E138K/M184V): 2.4 ± 0.2 nM; IC50 (HIV-1 RT mutant K101E; K101E): 2.3 ± 1.2 nM; fold-change of IC50 of the mutant relative to WT (HIV-1 RT mutant Y181I): 24; IC50 (HIV-1 RT mutant M230L; M230L): 4 ± 2 nM; IC50 (HIV-1 RT mutant E138K; E138K): 1.6 ± 0.07 nM; fold-change of IC50 of the mutant relative to WT (HIV-1 RT mutant K101P): 12; IC50 ([5]; E138K/M184I): 2.9 ± 0.6 nM; IC50 [5, 12]: < 2.5 nM"
Cc1cc(/C=C/C#N)cc(C)c1Nc1nc(Nc2ccc3scnc3c2)c2nc[nH]c2n1 [compound 21],6,< 2.5,3.9 ± 0.14,10,9,3.6 ± 0.6,0.41 ± 0.1,3.8 ± 1.6,9,> 100,< 6.1,6,< 2.5,> 100,1.4 ± 0.07,3,2,< 7,< 7,15,IC50 ([1]; E138K/M184V): 2.3 ± 0.7 nM; IC50 (HIV-1 RT mutant M230L; M230L): 6.1 ± 0.14 nM; IC50 (HIV-1 RT mutant E138K; E138K): 2.4 ± 0.4 nM
